Key:
[1] = tested on: primary CD138+ myeloma cells; assay: Annexin V flow cytometry viability of primary bone marrow mononuclear cells, myeloma fraction; format: cell-based, human
Description: Human multiple myeloma cell lines 8226, H929, JJN3, KMH11, KMS11, KMS18, LP1, MM.1 S, OPM2, and U266 were grown in Iscove's modified Dulbecco's medium (IMDM). Cell lines were authenticated with short tandem repeat method in September 2011. In addition, cell lines were continually monitored by morphological inspection. Primary mononuclear cells were isolated from peripheral blood or bone marrow samples from multiple myeloma patients at the Princess Margaret Cancer Centre (Toronto, ON, Canada) by Ficoll density gradient centrifugation and cultured in IMDM. All cell culture media were obtained from the Ontario Cancer Institute Tissue Culture Media Facility (Toronto, ON, Canada) and were supplemented with 10% fetal calf serum, 100 μg/ml penicillin, and 100 μg/ml streptomycin (Hyclone, Logan, UT, USA). […]
Cellular viability was primarily assessed by MTS assay according to the manufacturer's instructions (Promega, Madison, WI, USA). […] Cell viability was independently confirmed by reading the optical density at 490 nm and by exclusion of trypan blue stain (Invitrogen, Burlington, ON, Canada). Viability of primary mononuclear cells was determined by Annexin V–fluorescein isothiocyanate and propidium iodide co-staining (Biovision Research Products, Mountain View, CA, USA) using flow cytometry according to the manufacturer's instructions after 48 h of treatment with inhibitors or vehicle control.

[2] = tested on: MM.1S human myeloma cells; assay: Subcutaneous MM.1S myeloma xenograft model; format: in vivo, NOD/SCID mice; details: for tumor burden compared with vehicle control: P<0.01 by day 24, P<0.001 after 27 days
Description: Human MM.1S myeloma cells (5 × 10^6) were injected subcutaneously into 6–8-week-old female NOD/SCID mice (10 mice per group). When tumors were palpable, mice were administered vehicle by oral gavage (5% DMSO, 20% Cremophor; once daily × 3 weeks), carfilzomib intravenously (5 mg/kg, once daily on days 1 and 2 of each week × 3 weeks), ONX-0912 by oral gavage (30 mg/kg, once daily on days 1 and 2 of each week × 3 weeks), or FV-162 by oral gavage (30 mg/kg or 100 mg/kg, once daily × 3 weeks). Over time, tumor volume (tumor length × width^2 × 0.5236) was measured with calipers (Control Company, Friendswood, TX, USA), and mouse body weight was monitored.

[3] = Metabolic stability assay with pooled mouse liver microsomes; format: in vitro ADME; details: 5 μM compound, 15 min, 0.5 mg/ml pooled mouse liver microsomes, LC/MS
Description: Pooled liver microsomes isolated from male CD-1 mice were purchased from BD Biosciences (San Jose, CA, USA). Metabolic stability was calculated by measuring the percentage of 5 μM of each test compound remaining after 15 min incubation with 0.5 mg/ml liver microsomes at 37 °C. Compounds were detected by LC/MS using a Xevo quadrupole time-of-flight mass spectrometer and an ACQUITY ultra-performance LC (UPLC) system (Waters Inc., Milford, MA, USA) to determine relative peak areas of each parent compound.

[4] = Pharmacokinetic study in NOD/SCID mice; format: in vivo; details: plasma, mouse; for bioavailability: 25 mg/kg p.o. vs 5 mg/kg i.v.
Description: NOD/SCID mice were administered FV-162 or ONX-0912 at doses of 5 mg/kg intravenously or 25 mg/kg by oral gavage in a 12.5% ethanol, 12.5% Tween-80 vehicle (3 mice per group). Venous blood samples (20–50 μl) were collected at 5, 15, 30 min, and 1, 2, and 4 h postdose. Plasma was separated from whole blood by centrifugation and stored at −20 °C until analysis. […] Venous blood samples (20–50 μl) were collected at 5, 10, 30, and 60 min postdose. Plasma was separated from whole blood by centrifugation and stored at −20 °C until analysis. The Cmax, its associated time (Tmax), the terminal half-life (t1/2), area under the plasma concentration–time curve (AUC), clearance (CL), and volume of distribution (Vd) were evaluated using Pheonix WinNonlin 6.2.1 (Princeton, NJ, USA), and relative oral bioavailability (F%) values were calculated as follows: F%=AUCoral gavage/AUCintravenous × 100.

Structure (SMILES): COC[C@H](NC(=O)c1cnc(C)s1)C(=O)N[C@@H](COC)C(=O)N[C@@H](Cc1ccccc1)C(=O)[C@@]1(C)CO1 [ONX-0912, reference compound]
- induction of death in primary myeloma cells ([1]; similar concentrations as FV-162, 48 h): less effective at inducing death in primary myeloma cells
- tumor burden compared with vehicle control ([2]; 30 mg/kg twice weekly by oral gavage): significantly reduced tumor burden
- percentage of parent compound remaining [3]: 56%
- AUC ([4]; iv, 5 mg/kg i.v.): 54.1 ng·h/mL
- Cmax ([4]; iv, 5 mg/kg i.v.): 187 ng/mL
- Tmax ([4]; iv, 5 mg/kg i.v.): 5 min
- Vd ([4]; iv, 5 mg/kg i.v.): 48 L/kg
- clearance ([4]; iv, 5 mg/kg i.v.): 1490 mL/min/kg
- half-life ([4]; iv, 5 mg/kg i.v.): 22 min
- AUC ([4]; po, 25 mg/kg p.o.): 8.55 ng·h/mL
- Cmax ([4]; po, 25 mg/kg p.o.): 38 ng/mL
- Tmax ([4]; po, 25 mg/kg p.o.): 5 min
- bioavailability ([4]; po): 3%

Structure (SMILES): Cc1ncc(C(=O)N[C@@H](COC(F)F)C(=O)N[C@@H](COC(F)F)C(=O)N[C@@H](Cc2ccccc2)C(=O)[C@@]2(C)CO2)s1 [FV-162]
- primary myeloma cells killed ([1]; concentrations ⩽0.1 μM, 48 h, n=8 patients): At least 80%
- tumor burden compared with vehicle control ([2]; 30 mg/kg daily by oral gavage): significantly reduced tumor burden
- tumor burden compared with vehicle control ([2]; 100 mg/kg daily by oral gavage): significantly reduced tumor burden
- tumor growth reduction compared with ONX-0912 (30 mg/kg) ([2]; 100 mg/kg daily, by 27 days after inoculation, P<0.05): greater reduction in tumor growth
- percentage of parent compound remaining [3]: Over 80%
- AUC ([4]; iv, 5 mg/kg i.v.): 111 ng·h/mL
- Cmax ([4]; iv, 5 mg/kg i.v.): 268 ng/mL
- Tmax ([4]; iv, 5 mg/kg i.v.): 5 min
- Vd ([4]; iv, 5 mg/kg i.v.): 96 L/kg
- clearance ([4]; iv, 5 mg/kg i.v.): 702 mL/min/kg
- half-life ([4]; iv, 5 mg/kg i.v.): 95 min
- AUC ([4]; po, 25 mg/kg p.o.): 51.9 ng·h/mL
- Cmax ([4]; po, 25 mg/kg p.o.): 21 ng/mL
- Tmax ([4]; po, 25 mg/kg p.o.): 60 min
- bioavailability ([4]; po): 10%
